Experimental data taken from PMC11943723, “Synthesis and Biological Activity of Glycosyl Thiazolyl Disulfides Based on Thiacarpine, an Analogue of the Cytotoxic Alkaloid Polycarpine from the Ascidian Polycarpa aurata” (Marine Drugs, 2025).
Values after ≈ are worked out from the molar mass of the structure shown. Read-outs that look alike come from different tables or passages of the source.

How the values were obtained:
[1] = in vivo experiments; cited from earlier work
[2] = system: Escherichia coli (VKPM B-7935); test: Antimicrobial activity, inhibition of microbial growth (optical density); assay type: cell-based; conditions: Escherichia coli; 18 h, OD 620 nm; read-out: Inhibition of Microbial Growth MIC50, E. coli
Protocol: (§1) The antimicrobial activity of the compounds was determined against Gram-positive bacteria Staphylococcus aureus (ATCC 21027), Gram-negative bacteria Escherichia coli (VKPM B-7935), and yeast-like fungi Candida albicans (KMM 455) (all test strains were obtained from the Collection of Marine Microorganisms KMM PIBOC FEB RAS) in liquid nutrient media. Test cultures of S. aureus, E. coli, and C. albicans were grown in Petri dishes on a solid nutrient medium (Mueller–Hinton broth with the addition of agar—16.0 g/L) at 37 °C for 24 h. The antimicrobial activity of the compounds was determined by the change in optical density and expressed as the percentage of bacterial inhibition at different concentrations of substances added to the well of the microorganism suspension, compared to the control. The compounds were dissolved in dimethyl sulfoxide (DMSO) at a concentration of 10 mM and stored at −20 °C. Before the experiment, the solution of substances in DMSO was diluted with PBS at a concentration of 0.5–100.0 µM and added to the wells so that the concentration of DMSO in the culture medium was less than 1%. Antimicrobial activity was determined in 96-well microplates in a liquid Mueller–Hinton nutrient medium. For S. aureus, E. coli, and C. albicans, a bacterial suspension of 10^6 CFU in 1 mL of the media was used, 90 μL was added to each well of the microplates and then incubated in a thermostatted shaker at 37 °C for 18 h. Inhibition of microorganism growth was assessed by measuring the optical density at 620 nm using a microplate reader (Thermo Fisher Scientific, Waltham, MA, USA) after preliminary shaking of the plates for 10 min. All experiments were performed in triplicate. Gentamicin (S. aureus and E. coli) and nitrofungin (C. albicans) were used as positive controls, and 1% DMSO in PBS was used as a negative control.

[3] = system: Staphylococcus aureus (ATCC 21027); test: as above; assay type: cell-based; conditions: Staphylococcus aureus, ATCC21027; 18 h, OD 620 nm; read-out: Inhibition of Microbial Growth MIC50, S. aureus
Protocol: as §1

[4] = system: Candida albicans (KMM 455); test: as above; assay type: cell-based; conditions: Candida albicans, KMM455; 18 h, OD 620 nm; read-out: Inhibition of Microbial Growth MIC50, C. albicans
Protocol: as §1

[5] = system: Hep G2 (hepatocellular carcinoma); test: MTT cell viability assay, Hep G2; assay type: cell-based; conditions: Homo sapiens, HepG2, 24 h incubation, read-out: Cytotoxicity EC50, Hep G2
Source text: (§2) Human erythrocytes were purchased from the blood transfusion station Vladivostok. Human breast cancer cell lines MCF-7^HTB−22, and MDA-MB-231^CRM-HTB−26, liver hepatocellular carcinoma Hep G2^HB−8065, prostate adenocarcinoma PC-3^CRL−1435, cervical adenocarcinoma HeLa^CRM-CCL−2, and normal bronchial epithelial cells BEAS-2B ^CRL−3588 were received from ATCC (Manassas, VA, USA).
(§3) DMEM medium (Biolot, Russia) with 1% penicillin/streptomycin and 10% fetal bovine serum (FBS) (Biolot, Russia) was used for cultivation of Hep G2, PC-3, HeLa, and Beas-2b. MEM medium (Biolot, Russia) with 1% penicillin/streptomycin sulfate (Biolot, Russia) and FBS (Biolot, Russia) to a final concentration of 10% for MCF-7 and MDA-MB-231 cells.
(§4) The effect of the studied compounds on the viability of human cancer and normal cells was determined using the MTT (3-[4,5-dimethylthiazol-2-yl]-2,5 diphenyl tetrazolium bromide) assay. Briefly, 6 × 10^3 cells per well were seeded into 96-well plates and incubated for 24 h for adhesion, followed by incubation for 24 h with different concentrations of the substances. After incubation, the medium containing the test substances was replaced with 100 µL of fresh medium. Then, 10 μL of MTT (Sigma-Aldrich, Madison, WI, USA) reagent (5 mg/mL MTT in PBS) was added into the cells and the plates for additional 4 h. Thereafter, 100 µL of SDS-HCl solution (1 g SDS/10 mL dH2O/17 µL 6N HCl) was added to each well and incubated for 18 h. The absorbance of the converted formazan dye was measured using a Multiskan FC microplate photometer (Thermo Scientific, Waltham, MA, USA) at a wavelength of 570 nm. All experiments were performed in triplicate. Cytotoxic activity was expressed as a percentage of the cell viability.

[6] = system: MDA-MB-231 (triple-negative breast cancer); test: MTT cell viability assay, MDA-MB-231; assay type: cell-based, human; conditions: 24 h incubation, read-out: Cytotoxicity EC50, MDA-MB-231 (TNBC)
Source text: as §2, §3, §4

HeLa cells = test: Wound scratch migration assay; assay type: cell-based; conditions: Homo sapiens, 24 h, read-out: Migration inhibition effect
Protocol: To analyze the effect of the tested compounds on the migration of HeLa tumor cells, special migration inserts (Culture-insert 2 Well 24, ibiTreat, Martinsried, Germany) were used, which left a gap of 500 ± 50 μm (according to the manufacturer’s data) between the cells attached to the plate. HeLa cells at a concentration of 5 × 10^5 were added to each well of the migration insert for 24 h, the insert was removed, and the cells were washed twice with PBS to remove cell debris and floating cells and loaded with the fluorescent probe CFDA-SE (Lumiprobe, Moscow, Russia) at a concentration of 10 µM for 5 min. The cells were treated with different concentrations of the studied compounds for 0 and 24 h. Cells treated with culture medium alone were used as vehicle controls. Cell migration in the wound area was observed under a fluorescence microscope (MIB-2-FL, LOMO, St. Petersburg, Russia) with a 10× objective.

[7] = MTT cell viability assay, BEAS-2B normal cells; assay type: cell-based; conditions: human, BEAS-2B normal bronchial epithelial cells, 24 h incubation, read-out: Cytotoxicity EC50, BEAS 2B
Source text: as §2, §3, §4

HeLa (cervical cancer) = test: MTT cell viability assay, HeLa; assay type: cell-based, human; conditions: 24 h incubation, read-out: Cytotoxicity EC50, HeLa
Source text: as §2, §3, §4

melanoma B-16 = conditions: injected intraperitoneally; cited from earlier work
LLC = conditions: injected intraperitoneally; cited from earlier work
Human erythrocytes = test: Hemolytic activity (destruction of erythrocyte membranes); assay type: cell-based
Source text: as §2

[8] = system: Staphylococcus aureus (ATCC 21027); test: Inhibition of biofilm formation (MTT); assay type: cell-based; conditions: 24 h
Protocol: (§5) Biofilm formation was performed according to the method described by Walencka et al., with minor modifications. The compounds were dissolved in dimethyl sulfoxide (DMSO) at a concentration of 10 mM and stored at −20 °C. Before the experiment, the solution of substances in DMSO was diluted with PBS at a concentration of 0.5–100.0 µM and added to the wells so that the concentration of DMSO in the culture medium was less than 1%. Biofilm formation was assessed in 96-well microplates in a liquid Mueller–Hinton nutrient medium. For S. aureus, E. coli, and C. albicans, a bacterial suspension of 10^6 CFU in 1 mL of medium was used, 90 μL was added to each well of the microplates and then incubated in a thermostatted shaker at 37 °C for 24 h. After incubation, the suspension of planktonic microorganisms was removed from the plate and washed with PBS. Next, 100 μL of PBS and 10 μL of MTT (3-(4,5-dimethylthiazol-2-yl)-2,5-diphenyltetrazolium bromide, MTT reagent, Sigma) stock solution (5 mg/mL) were added to the wells and incubated for 3 h at 37 °C. After incubation, all the solution was removed from the wells, 100 μL of DMSO was added, and the plate was shaken for 10 min until all formazan crystals had dissolved. The absorption was measured using a plate reader (Thermo Fisher Scientific, Waltham, MA, USA) at a wavelength of 570 nm. The activity of the substances was assessed by the change in optical density compared with that of the control. All experiments were performed in triplicate. Gentamicin (S. aureus and E. coli) and nitrofungin (C. albicans) were used as positive controls, and 1% DMSO in PBS was used as a negative control.

[9] = system: Candida albicans (KMM 455); test: Inhibition of biofilm formation (MTT); assay type: cell-based; conditions: 24 h
Protocol: as §5

Row | MIC50 [2] | MIC50 [3] | MIC50 [4] | Inhibition of Biofilm Formation MIC50, S. aureus [8] | Inhibition of Biofilm Formation MIC50, C. albicans [9] | Structure (SMILES) | Acute toxicity in vivo [1] | EC50 [5] | EC50 [6] | EC50 ([6]; Homo sapiens, MDA-MB-231, 24 h) | inhibition at 10 µM (HeLa cells) | EC50 at 24 h [7] | EC50 (HeLa (cervical cancer)) | EC50 (HeLa (cervical cancer); Homo sapiens, HeLa, 24 h) | Inhibition of development of solid tumor melanoma B-16 (melanoma B-16) | Inhibition of development of solid tumor LLC (LLC) | Hemolytic activity, erythrocytes (Human erythrocytes)
1 | – | – | – | – | – | COc1ccc(-c2nc(N)n(C)c2SSc2c(-c3ccc(OC)cc3)nc(N)n2C)cc1 [polycarpine] | acute toxicity | – | – | – | – | – | – | – | – | – | –
2 | > 50 µM | > 50 µM | 17.7 ± 0.3 µM (≈ 10.3 µg/mL) | – | – | CC(=O)OC[C@H]1O[C@@H](SSc2sc(N)nc2-c2ccc(C)cc2)[C@H](OC(C)=O)[C@@H](OC(C)=O)[C@@H]1OC(C)=O [Compound 4e, 5-[(2,3,4,6-Tetra-O-acetyl-β-D-glucopyranosyl)disulfanyl]-2-amino-4-(p-tolyl)thiazole] | – | > 25 µM | 15 µM | 15 µM | ~43% | > 25 µM | 18.5 µM | 18.5 µM | – | – | –
3 | > 50 µM | 10.3 ± 1.1 µM (≈ 4.89 µg/mL) | 38.2 ± 3.2 µM (≈ 18.1 µg/mL) | – | – | COc1ccc(-c2nc(N)sc2SSc2sc(N)nc2-c2ccc(OC)cc2)cc1 [Compound 1a] | – | > 25 µM | – | 21.4 µM | – | > 25 µM | – | > 25 µM | effectively inhibited | effectively inhibited | –
4 | 5.8 ± 0.4 µM (≈ 3.35 µg/mL) | 2.4 ± 0.2 µM (≈ 1.39 µg/mL) | 4.3 ± 0.5 µM (≈ 2.48 µg/mL) | 6.32 µM | 7.11 µM | CC(=O)O[C@@H]1[C@@H](OC(C)=O)[C@H](SSc2sc(N)nc2-c2ccc(Br)cc2)OC[C@H]1OC(C)=O [Compound 4h, 5-[(2,3,4-Tri-O-acetyl-β-D-xylopyranosyl)disulfanyl]-2-amino-4-(4-bromophenyl)thiazole] | – | 24.6 µM | – | 21.1 µM | ~43% | 19.9 µM | – | 21.3 µM | – | – | > 25 µM
